Data taken from the supplement of paper PMC10307832.

Assays:
Assay in all cases: relative viability (nuclei count vs DMSO), 5 days (fraction); higher = more cells survive
PAC-1 + Crizotinib = compound: C=CCc1cccc(/C=N/NC(=O)CN2CCN(Cc3ccccc3)CC2)c1O [PAC-1] + C[C@@H](Oc1cc(-c2cnn(C3CCNCC3)c2)cnc1N)c1c(Cl)ccc(F)c1Cl [Crizotinib] (partner 1 µM)
In short: (§1)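 Five library-drug doses in √10 steps were combined with a fixed anchor-drug dose, or a single drug was given alone, by pin tool to lung cancer cell lines in 1536-well plates the day after seeding. Nuclei were stained and counted after 5 days. Relative viability is the nuclei count in treated wells over that in vehicle wells, taken as the median of duplicate plates.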

Ibrutinib + Decitabine = compound: C=CC(=O)N1CCC[C@@H](n2nc(-c3ccc(Oc4ccccc4)cc3)c3c(N)ncnc32)C1 [Ibrutinib] + Nc1ncn([C@H]2C[C@H](O)[C@@H](CO)O2)c(=O)n1 [Decitabine] (partner 2 µM)
In short: as §1

BMX-IN-1 + Lapatinib = compound: C=CC(=O)Nc1cc(-n2c(=O)ccc3cnc4ccc(-c5ccc(NS(C)(=O)=O)cc5)cc4c32)ccc1C [BMX-IN-1] + CS(=O)(=O)CCNCc1ccc(-c2ccc3ncnc(Nc4ccc(OCc5cccc(F)c5)c(Cl)c4)c3c2)o1 [Lapatinib] (partner 2 µM)
In short: as §1

BMX-IN-1 + OSI-027 = compound: C=CC(=O)Nc1cc(-n2c(=O)ccc3cnc4ccc(-c5ccc(NS(C)(=O)=O)cc5)cc4c32)ccc1C [BMX-IN-1] + COc1cccc2cc(-c3nc([C@H]4CC[C@H](C(=O)O)CC4)n4ncnc(N)c34)[nH]c12 [OSI-027] (partner 0.5 µM)
In short: as §1

SK-MES-1
relative viability (PAC-1 + Crizotinib; first compound 0.02 µM): 1.05 | relative viability (PAC-1 + Crizotinib; first compound 0.06325 µM): 1.01 | relative viability (PAC-1 + Crizotinib; first compound 0.2 µM): 1.01 | relative viability (PAC-1 + Crizotinib; first compound 2 µM): 1.01 | relative viability (Ibrutinib + Decitabine; first compound 0.005 µM): 0.39 | relative viability (Ibrutinib + Decitabine; first compound 0.01581 µM): 0.359 | relative viability (Ibrutinib + Decitabine; first compound 0.05 µM): 0.335 | relative viability (Ibrutinib + Decitabine; first compound 0.1581 µM): 0.364 | relative viability (Ibrutinib + Decitabine; first compound 0.5 µM): 0.359 | relative viability (BMX-IN-1 + Lapatinib; first compound 0.02 µM): 0.473 | relative viability (BMX-IN-1 + Lapatinib; first compound 0.2 µM): 0.466 | relative viability (BMX-IN-1 + Lapatinib; first compound 0.6325 µM): 0.489 | relative viability (BMX-IN-1 + Lapatinib; first compound 2 µM): 0.439 | relative viability (BMX-IN-1 + OSI-027; first compound 0.02 µM): 0.783 | relative viability (BMX-IN-1 + OSI-027; first compound 0.2 µM): 0.645 | relative viability (BMX-IN-1 + OSI-027; first compound 0.6325 µM): 0.757 | relative viability (BMX-IN-1 + OSI-027; first compound 2 µM): 0.239
